Experimental data as given in article PMC6273329, “Synthesis of N-(6-Arylbenzo[d]thiazole-2-acetamide Derivatives and Their Biological Activities: An Experimental and Computational Approach” (Molecules, 2016).
Converted amounts (≈) assume the structure as drawn. Where two headings read alike, the source gives them in different places.

How the values were obtained:
[1] = Nitric oxide scavenging assay (Garrat method, Griess reagent)
Description: The literature contains reports on the antioxidant activities of 6-flourobenzothiazole-substituted triazoles using DPPH assays. […] Having a phenyl ring on the pyrozoline increased the antioxidant activity in the ferric ion reduction and DPPH solution methods. […] Synthesized compounds with their calculated IC50 values are listed in Table 5 (Figure 8 and Figure 9).
The activity of newly synthesized benzothiazole derivatives was determined using the Garrat method. Griess reported the Garrat method which is followed by a diazotization reaction. Under acidic conditions, this method utilizes sodium nitroprusside as the source of nitric oxide, sulfanilamide and N-1-naphthylethylenediamine dihydrochloride to detect NO2^−, produced at the expense of nitric oxide. A known amount of tested compounds 3a–3h was dissolved in sodium nitroprusside solution (20 mM, 100 µL) and then the volume was made up to 1000 µL with phosphate buffer (200 mM, pH 7.4). This solution was incubated for 2 h at 37 °C and Griess reagent (100 µL) was added. This solution was stored for 20 min at room temperature. At 528 nm, optical density of this colored solution was observed. For positive control, ascorbic acid was used.

[2] = system: red blood cells; format: cell-based
Description: The haemolytic activity of benzothiazole derivatives has already been reported. […] Benzothiazole compounds with halogen substitutions show cytotoxicity towards cancer cell lines. The haemolytic activity of the newly synthesized benzothiazole derivatives were studied against Triton X-100 by a reported method.
Haemolytic activity of newly synthesized benzothiazole derivatives 3a–3h was determined using a reported method. Solutions of compounds were prepared at concentrations of 1 mg/mL in 10% DMSO with 90% water Heparinized human fresh blood (3 mL) was used that was homogeneously mixed and added into a 15 mL sterile Falcon tube. It was centrifuged for 5 min and the supernatant was removed. Chilled sterile isotonic phosphate buffer saline solution (5 mL, 7.4 pH) at 4 °C was used three times. Washed red blood cells were suspended in chilled RBS (20 mL). A haemacytometer was used for counting erythrocytes. For each assay 7.068 × 10^8 red blood cells per mL count were maintained and then diluted blood cells (180 µL) were added to the test compound (20 µL) and suspended in Eppendorf tubes. It was incubated for 35 min at 37 °C then the tubes were kept in an ice bath for 5 min and centrifuged again for 5 min. After centrifugation, the obtained supernatant was collected carefully and diluted with 900 µL of chilled PBS. All these tubes were kept in ice bath and solution (200 µL) was added into 96 well plates from each Eppendrof tube. For each essay, Triton X-100 (0.1%) was taken as positive control. For negative control, phosphate buffer was used. A microplate reader was used for determining the absorbance at 576 nm.

[3] = molecular target: urease (Canavalia ensiformis, UniProt P07374); test: biochemical; format: biochemical; settings: for IC50: urease inhibition, in vitro; for inhibition at 15 µg/mL: read-out: % Inhibition at 15 µg/mL, 15 µg/mL; for inhibition at 15 µg/mL / inhibition at 40 µg/mL / % Inhibition at 40 µg/mL: mean ± SD of three measurements; for inhibition at 40 µg/mL: read-out: % Inhibition at 40 µg/mL, 40 µg/mL
Chain of urease (P07374 whole entry, looked up): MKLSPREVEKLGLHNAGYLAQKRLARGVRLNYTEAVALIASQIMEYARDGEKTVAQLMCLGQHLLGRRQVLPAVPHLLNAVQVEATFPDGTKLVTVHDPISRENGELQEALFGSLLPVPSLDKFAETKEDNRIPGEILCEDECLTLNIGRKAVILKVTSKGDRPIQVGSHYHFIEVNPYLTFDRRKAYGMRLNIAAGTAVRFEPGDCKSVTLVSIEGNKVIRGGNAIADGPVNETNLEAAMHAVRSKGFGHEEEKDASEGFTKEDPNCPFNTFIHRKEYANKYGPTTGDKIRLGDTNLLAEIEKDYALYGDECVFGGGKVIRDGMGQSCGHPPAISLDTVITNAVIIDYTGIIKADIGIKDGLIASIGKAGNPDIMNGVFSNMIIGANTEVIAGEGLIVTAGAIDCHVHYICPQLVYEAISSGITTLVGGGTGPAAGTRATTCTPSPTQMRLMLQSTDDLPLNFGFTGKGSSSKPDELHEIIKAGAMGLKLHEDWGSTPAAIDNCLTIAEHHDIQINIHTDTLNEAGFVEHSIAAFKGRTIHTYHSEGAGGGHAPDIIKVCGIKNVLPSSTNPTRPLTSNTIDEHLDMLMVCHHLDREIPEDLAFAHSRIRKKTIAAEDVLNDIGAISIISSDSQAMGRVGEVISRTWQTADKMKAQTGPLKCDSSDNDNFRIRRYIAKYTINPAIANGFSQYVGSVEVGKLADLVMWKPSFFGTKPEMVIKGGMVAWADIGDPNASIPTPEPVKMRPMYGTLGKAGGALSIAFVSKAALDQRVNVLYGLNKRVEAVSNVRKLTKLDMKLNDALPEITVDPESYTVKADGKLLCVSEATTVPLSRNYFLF

[4] = system: S. dysenteriae; test: Antibacterial activity, 96 well plate method; format: cell-based; settings: Shigella dysenteriae, read-out: % Activity at 40 μg/mL, S. dysenteriae
Description: The synthesized benzothiazole derivatives were examined for their anti-bacterial activity against two Gram positive-bacterial strains (Baccilus subtiles, Staphylococcus aureus) and four Gram-negative strains (Escherichia coli, Psuedomonas aeruginosa, Shigella dysenteriae, Salmonella typhae) at concentrations of 40 and 80 μg/mL (Table 7 and Table 8). It was concluded that the potent antibacterial activities of these compounds might be due to electron withdrawing groups present on the aryl moiety in N-protected benzothiazole molecule.
These newly benzothiazole derivatives were tested for their antibacterial activities against two Gram positive strains (Baccilus subtilis, Staphylococcus aureus) and four Gram negative strains (Escherichia coli, Psuedomonas aeruginosa, Shigella dysenteriae and Salmonella typhae) using a reported protocol. Streptomycin was used as positive control. The 96 well plate method was optimized for measuring the antibacterial activities of these compounds. In each well, sterilized broth (175 µL) was added and inoculated with glycerol stock (5 µL) of a specific bacterial strain. The initial absorbance was observed between 0.12–0.19. […] After a certain waiting time (12 h), test sample (20 µL) was added to the pre-determined wells. […] The difference in absorbance values were observed and were used as an index of bacterial growth. […]

[5] = human, 35 min, 0.1 mg/mL, pH 7.4

Row | SMILES | IC50 (µg/mL) nitric oxide scavenging [1] | melting point | % lysis of RBC [2, 5] | IC50 ([3]; IC50 (µg/mL)) | inhibition at 15 µg/mL [3] | inhibition at 40 µg/mL [3] | % Inhibition at 40 µg/mL [3] | % lysis of RBC ([2]; compound solutions 1 mg/mL in 10% DMSO, human RBC, 35 min at 37 °C, mean ± SD of three) | IC50 [3] | nitric oxide scavenging activity (in words) [1] | inhibition at 40 µg/mL [4]
1 | CC(=O)Nc1nc2ccc(-c3ccc(C)cc3)cc2s1 [Compound 3b, N-(6-(p-Tolyl)benzo[d]thiazol-2-yl)acetamide] | 26.4 µg/mL (≈ 93.5 µM) | 205 to 207 °C | 44.179 ± 0.157% | 58.4 µM | 47 ± 0.11% | 90.51 ± 0.19% |  |  |  |  | 
2 | CC(=O)Nc1nc2ccc(-c3ccc(C)s3)cc2s1 [Compound 3e, N-(6-(5-Methylthiophen-2-yl)benzo[d]thiazol-2-yl)acetamide] | 37.1 µg/mL (≈ 129 µM) |  | 44.425 ± 0.181% | 59.6 µM | 46 ± 0.12% | 87 ± 0.26% |  |  |  |  | 
3 | COc1ccc(-c2ccc3nc(NC(C)=O)sc3c2)cc1 [Compound 3d, N-(6-(4-Methoxyphenyl)benzo[d]thiazol-2-yl)acetamide] |  | 218 to 220 °C | 44.078 ± 0.279% | 57 µM | 46.5 ± 0.15% | 88.5 ± 0.24% |  |  |  |  | 
4 | CC(=O)Nc1nc2ccc(-c3cc(C(F)(F)F)cc(C(F)(F)F)c3)cc2s1 [Compound 3c, N-(6-(3,5-bis(Trifluoromethyl)phenyl)benzo[d]thiazol-2-yl)acetamide] |  |  | 47.089 ± 0.130% | 42.5 µM | 46.09 ± 0.1% | 90.33 ± 0.2% | 90.07 ± 0.20% |  |  |  | 
5 | CC(=O)Nc1nc2ccc(Br)cc2s1 [Compound 2, N-(6-bromobenzo[d]thiazol-2-yl)acetamide] |  |  |  |  |  |  |  | 44.628 ± 0.369% |  |  | 
6 | CC(=O)Nc1nc2ccc(-c3ccccc3)cc2s1 [Compound 3a, N-(6-Phenylbenzo[d]thiazol-2-yl)acetamide] | 32.7 µg/mL (≈ 122 µM) |  | 42.123 ± 0.479% | 69.3 µM | 44 ± 0.12% | 83.9 ± 0.12% |  |  |  |  | 
7 | NC(N)=S [Thiourea, reference compound] |  |  |  |  |  |  |  |  | 23.1 mg/L |  | 
8 | CC(=O)Nc1nc2ccc(-c3ccc(F)c(Cl)c3)cc2s1 [Compound 3g, N-(6-(3-Chloro-4-fluorophenyl)benzo[d]thiazol-2-yl)acetamide] | 39.1 µg/mL (≈ 122 µM) | 166 to 167 °C | 43.614 ± 0.157% | 58.9 µM | 42 ± 0.14% | 87 ± 0.26% |  |  |  |  | 
9 | O=C1O[C@H]([C@@H](O)CO)C(O)=C1O [Ascorbic acid, reference compound] | 50.43 µg/mL (≈ 286 µM) |  |  |  |  |  |  |  |  |  | 
10 | CC(=O)Nc1nc2ccc(-c3cc(C#N)cc(C(F)(F)F)c3)cc2s1 [Compound 3f, N-(6-(3-Cyano-5-(trifluoromethyl)phenyl)benzo[d]thiazol-2-yl)acetamide] |  |  | 44.063 ± 0.314% | 53.1 µM | 42 ± 0.12% | 87.5 ± 0.26% |  |  |  | inactive | 
11 | CC(=O)Nc1nc2ccc(-c3cc(C)cc(C)c3)cc2s1 [Compound 3h, N-(6-(3,5-Dimethylphenyl)benzo[d]thiazol-2-yl)acetamide] | 32.3 µg/mL (≈ 109 µM) | 205 to 207 °C | 40.661 ± 0.216% | 62.1 µM | 43.59 ± 0.13% | 90.07 ± 0.2% | 90.33 ± 0.20% |  |  |  | 3.51 ± 0.43%
